Reference: PubChem BioAssay (NCI)
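GI50 marks 50% less growth. TGI: total growth inhibition.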

What was measured:
Assay in all cases: inhibition of tumour cell growth, NCI panel, 384-well format
SK-MEL-5 melanoma = system: SK-MEL-5 melanoma
SR leukemia = system: SR leukemia
UACC-62 melanoma = system: UACC-62 melanoma
HCC-2998 colon = system: HCC-2998 colon
MDA-MB-468 breast = system: MDA-MB-468 breast
NCI/ADR-RES ovarian = system: NCI/ADR-RES ovarian
NCI-H322M lung = system: NCI-H322M lung
MDA-MB-231 breast = system: MDA-MB-231 breast
UACC-257 melanoma = system: UACC-257 melanoma
U251 glioblastoma = system: U251 glioblastoma
NCI-H522 lung = system: NCI-H522 lung
HCT-116 colon = system: HCT-116 colon
RXF 393 renal = system: RXF 393 renal
OVCAR-4 ovarian = system: OVCAR-4 ovarian
HOP-62 NSCLC = system: HOP-62 NSCLC
MALME-3M melanoma = system: MALME-3M melanoma
T-47D breast = system: T-47D breast
DU-145 prostate = system: DU-145 prostate
K-562 leukemia = system: K-562 leukemia
HOP-92 NSCLC = system: HOP-92 NSCLC
HCT-15 colon = system: HCT-15 colon
SF-268 CNS = system: SF-268 CNS
MCF7 breast = system: MCF7 breast
BT-549 breast = system: BT-549 breast
OVCAR-5 ovarian = system: OVCAR-5 ovarian
M14 melanoma = system: M14 melanoma
UO-31 renal = system: UO-31 renal
ACHN renal = system: ACHN renal
NCI-H226 lung = system: NCI-H226 lung
OVCAR-3 ovarian = system: OVCAR-3 ovarian
TK-10 renal = system: TK-10 renal
OVCAR-8 ovarian = system: OVCAR-8 ovarian
SK-MEL-28 melanoma = system: SK-MEL-28 melanoma
SNB-19 CNS = system: SNB-19 CNS
COLO 205 colon = system: COLO 205 colon
HL-60(TB) leukemia = system: HL-60(TB) leukemia
A498 renal = system: A498 renal
NCI-H23 lung = system: NCI-H23 lung
CCRF-CEM leukemia = system: CCRF-CEM leukemia
IGROV1 ovarian = system: IGROV1 ovarian
SF-295 CNS = system: SF-295 CNS
SW-620 colon = system: SW-620 colon
SK-OV-3 ovarian = system: SK-OV-3 ovarian
SF-539 CNS = system: SF-539 CNS
NCI-H460 NSCLC = system: NCI-H460 NSCLC
A549 NSCLC = system: A549 NSCLC
MOLT-4 leukemia = system: MOLT-4 leukemia

O=C(O)[C@H](Cc1c[nH]c2ccccc12)N1C(=O)c2ccccc2C1=O
GI50 (SK-MEL-5 melanoma): > 100 µM
TGI (SK-MEL-5 melanoma): > 100 µM
GI50 (SR leukemia): > 100 µM
TGI (SR leukemia): > 100 µM
GI50 (UACC-62 melanoma): > 100 µM
TGI (UACC-62 melanoma): > 100 µM
GI50 (HCC-2998 colon): > 100 µM
TGI (HCC-2998 colon): > 100 µM
GI50 (MDA-MB-468 breast): > 100 µM
TGI (MDA-MB-468 breast): > 100 µM
GI50 (NCI/ADR-RES ovarian): > 100 µM
TGI (NCI/ADR-RES ovarian): > 100 µM
GI50 (NCI-H322M lung): > 100 µM
TGI (NCI-H322M lung): > 100 µM
GI50 (MDA-MB-231 breast): > 100 µM
TGI (MDA-MB-231 breast): > 100 µM
GI50 (UACC-257 melanoma): > 100 µM
TGI (UACC-257 melanoma): > 100 µM
GI50 (U251 glioblastoma): > 100 µM
TGI (U251 glioblastoma): > 100 µM
GI50 (NCI-H522 lung): > 100 µM
TGI (NCI-H522 lung): > 100 µM
GI50 (HCT-116 colon): > 100 µM
TGI (HCT-116 colon): > 100 µM
GI50 (RXF 393 renal): > 100 µM
TGI (RXF 393 renal): > 100 µM
GI50 (OVCAR-4 ovarian): > 100 µM
TGI (OVCAR-4 ovarian): > 100 µM
GI50 (HOP-62 NSCLC): > 100 µM
TGI (HOP-62 NSCLC): > 100 µM
GI50 (MALME-3M melanoma): > 100 µM
TGI (MALME-3M melanoma): > 100 µM
GI50 (T-47D breast): > 100 µM
TGI (T-47D breast): > 100 µM
GI50 (DU-145 prostate): > 100 µM
TGI (DU-145 prostate): > 100 µM
GI50 (K-562 leukemia): > 100 µM
TGI (K-562 leukemia): > 100 µM
GI50 (HOP-92 NSCLC): > 100 µM
TGI (HOP-92 NSCLC): > 100 µM
GI50 (HCT-15 colon): > 100 µM
TGI (HCT-15 colon): > 100 µM
GI50 (SF-268 CNS): > 100 µM
TGI (SF-268 CNS): > 100 µM
GI50 (MCF7 breast): > 100 µM
TGI (MCF7 breast): > 100 µM
GI50 (BT-549 breast): > 100 µM
TGI (BT-549 breast): > 100 µM
GI50 (OVCAR-5 ovarian): > 100 µM
TGI (OVCAR-5 ovarian): > 100 µM
GI50 (M14 melanoma): > 100 µM
TGI (M14 melanoma): > 100 µM
GI50 (UO-31 renal): > 100 µM
TGI (UO-31 renal): > 100 µM
GI50 (ACHN renal): > 100 µM
TGI (ACHN renal): > 100 µM
GI50 (NCI-H226 lung): > 100 µM
TGI (NCI-H226 lung): > 100 µM
GI50 (OVCAR-3 ovarian): > 100 µM
TGI (OVCAR-3 ovarian): > 100 µM
GI50 (TK-10 renal): > 100 µM
TGI (TK-10 renal): > 100 µM
GI50 (OVCAR-8 ovarian): > 100 µM
TGI (OVCAR-8 ovarian): > 100 µM
GI50 (SK-MEL-28 melanoma): > 100 µM
TGI (SK-MEL-28 melanoma): > 100 µM
GI50 (SNB-19 CNS): > 100 µM
TGI (SNB-19 CNS): > 100 µM
GI50 (COLO 205 colon): > 100 µM
TGI (COLO 205 colon): > 100 µM
GI50 (HL-60(TB) leukemia): > 100 µM
TGI (HL-60(TB) leukemia): > 100 µM
GI50 (A498 renal): > 100 µM
TGI (A498 renal): > 100 µM
GI50 (NCI-H23 lung): > 100 µM
TGI (NCI-H23 lung): > 100 µM
GI50 (CCRF-CEM leukemia): > 100 µM
TGI (CCRF-CEM leukemia): > 100 µM
GI50 (IGROV1 ovarian): > 100 µM
TGI (IGROV1 ovarian): > 100 µM
GI50 (SF-295 CNS): > 100 µM
TGI (SF-295 CNS): > 100 µM
GI50 (SW-620 colon): > 100 µM
TGI (SW-620 colon): > 100 µM
GI50 (SK-OV-3 ovarian): > 100 µM
TGI (SK-OV-3 ovarian): > 100 µM
GI50 (SF-539 CNS): > 100 µM
TGI (SF-539 CNS): > 100 µM
GI50 (NCI-H460 NSCLC): > 100 µM
TGI (NCI-H460 NSCLC): > 100 µM
GI50 (A549 NSCLC): > 100 µM
TGI (A549 NSCLC): > 100 µM
GI50 (MOLT-4 leukemia): > 100 µM
TGI (MOLT-4 leukemia): > 100 µM
